Earlier results, collected in US20140107523A1, “MODEL FOR TRAUMATIC BRAIN INJURY” (University of Rochester, priority 2012, published 2014).

Test system: NMDA receptor
Conditions: rats treated with the NMDA receptor blocker; spatial learning

N[C@@H](CCCP(=O)(O)O)C(=O)O [APV]
performance in the Morris water maze: perform poorly
